The source made the active and inactive calls.
Columns and labels:
[1] = Luminescence-based counterscreen assay for KLF5 inhibitors: dose response cell-based high throughput screening assay to identify cytotoxic compounds using the IEC-6 intestinal epithelial cell line. [Related pubchem assays: 1700 (Primary screen.), 1834 (Confirmation screen.), 1858 (Summary AID.), 1905 (Counterscreen.)]; format: functional
[2] = inhibitors acting on PAX2 in cells – cell-based, plate reader, dry powder samples, selectivity assay for PAX8 inhibitor project, dose response (AID 743048); format: functional;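 also: HEK293 cells carrying a WT1 promoter luciferase reporter driven by expressed Pax2; potency is for inhibition of Pax2 driven reporter signal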
[3] = blockers of bursicon-stimulated LGR2 cAMP reporter – cell-based, HEK293, CRE-luciferase reporter, cherry pick, set 2, dose response (AID 743343); format: functional;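 also: transfected cells were stimulated with diluted bursicon conditioned medium after compound addition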
[4] = off-target signal loss in HeLa-CEM21 co-culture – HeLa F-luc CTL cells, cherry-picked, counter-screen for HIV-1 Env fusion inhibitor project, dose response (AID 652040); format: functional, cell-based;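 also: potency for signal decrease marking cytotoxic or nonspecific inhibition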
[5] = alpha-synuclein stem-loop translation blockers – luminescence, H4 neuroglioblastoma cells, dose confirmation, confirmation (AID 2454); format: functional, cell-based;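 also: H4 neuroglioblastoma cells carrying an alpha-synuclein 5'UTR luciferase reporter; potency for inhibition of the luciferase signal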
[6] = luciferase reporter signal reduction – luminescence, H4-C neuroglioblastoma cells, dose response (AID 2458); format: functional, cell-based;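 also: H4 neuroglioblastoma cells stably carrying a luciferase reporter gene fusion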
[7] = HIV-1 AD8 envelope cell-cell fusion blockers – cherry-pick, dose response (AID 652062); format: functional, cell-based;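 also: luciferase signal from cell-cell fusion driven by HIV-1 clade B AD8 Env; potency is for inhibitors of fusion seen as a drop in luminescence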
cells = format: functional, cell-based
[8] = molecular target: T1, Microphthalmia-associated transcription factor (Homo sapiens, UniProt O75030); experiment: reducers of TRPM1 reporter luminescence, concentration series – cell-based, SK-MEL-5, cherry-picked, set 3, MITF inhibitor project, dose response (AID 493073); format: functional;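 also: SK-MEL-5 melanoma cells with luciferase driven by the MITF target TRPM1 promoter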
T1 sequence (O75030 whole entry): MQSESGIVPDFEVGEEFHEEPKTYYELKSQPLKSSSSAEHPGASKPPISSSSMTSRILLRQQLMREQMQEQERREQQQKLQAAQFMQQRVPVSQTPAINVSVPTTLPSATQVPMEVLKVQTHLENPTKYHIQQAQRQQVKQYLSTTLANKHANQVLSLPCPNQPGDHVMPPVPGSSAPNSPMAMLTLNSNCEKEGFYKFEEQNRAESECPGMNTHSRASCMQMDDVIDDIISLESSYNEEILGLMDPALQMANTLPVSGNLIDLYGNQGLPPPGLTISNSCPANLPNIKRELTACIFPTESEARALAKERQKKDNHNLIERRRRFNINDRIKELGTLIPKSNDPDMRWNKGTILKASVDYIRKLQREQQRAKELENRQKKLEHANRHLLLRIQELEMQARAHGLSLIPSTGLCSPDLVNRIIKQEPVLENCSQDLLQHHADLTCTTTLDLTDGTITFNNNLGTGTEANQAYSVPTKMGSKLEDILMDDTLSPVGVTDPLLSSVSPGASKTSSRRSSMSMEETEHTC

[9] = blockade of melanocortin 4 receptor signaling – cell-based, plate reader, cherry pick, counter-screen for LGR2 antagonist project, dose response (AID 743444); format: functional;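 also: transfected HEK 293 cells stimulated with alpha-MSH peptide; potency of inhibitors of the alpha-MSH evoked signal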
[10] = PAX8-dependent cell viability loss – plate reader, dry powder, dose response (AID 743049); format: functional, cell-based
[11] = alpha-synuclein stem-loop luciferase translation blockers – H4 neuroglioma cells, luminescence, confirmation (AID 1988); format: functional, cell-based
Paired box protein Pax-8 = Paired box protein Pax-8 (Homo sapiens, UniProt Q06710); experiment: PAX8 transcriptional activity inhibition in RMG-I – RMG-I cells, luciferase, cherry-pick, dose response (AID 687027); format: functional, cell-based;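 also: luciferase reporter driven by Pax8 target thyroperoxidase promoter measured by SteadyGlo luminescence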
[12] = blockers of HIV-1 envelope-mediated cell-cell fusion – cherry-pick, dose response (AID 652057); format: functional, cell-based
[13] = blockers of HIV-1 ZM109 envelope-driven cell-cell fusion – HeLa effector, CEM target cells, luciferase, cherry-pick, dose response (AID 652058); format: functional, cell-based;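 also: luciferase signal from HIV-1 Env mediated cell-cell fusion of effector and target cells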
[14] = PAX5 cellular inhibition readout – cell-based, plate reader, dry powder samples, selectivity assay for PAX8 inhibitor project, dose response (AID 743047); format: functional;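 also: HEK293 cells carrying a Pax5 driven CD19 promoter luciferase reporter; potency of inhibitors that lower reporter luminescence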
[15] = COV362 cell viability loss – plate reader, dry powder, SA12, cytotoxicity control for PAX8 inhibitor project, dose response (AID 743144); format: functional, cell-based
Estrogen receptor [16] = molecular target: T2, Estrogen receptor (Homo sapiens, UniProt P03372); experiment: blockers of SRC-3 recruitment to ERα – biochemical, ELISA, streptavidin-HRP readout, orthogonal assay, confirmation (AID 1079)
T2 sequence (P03372 whole entry): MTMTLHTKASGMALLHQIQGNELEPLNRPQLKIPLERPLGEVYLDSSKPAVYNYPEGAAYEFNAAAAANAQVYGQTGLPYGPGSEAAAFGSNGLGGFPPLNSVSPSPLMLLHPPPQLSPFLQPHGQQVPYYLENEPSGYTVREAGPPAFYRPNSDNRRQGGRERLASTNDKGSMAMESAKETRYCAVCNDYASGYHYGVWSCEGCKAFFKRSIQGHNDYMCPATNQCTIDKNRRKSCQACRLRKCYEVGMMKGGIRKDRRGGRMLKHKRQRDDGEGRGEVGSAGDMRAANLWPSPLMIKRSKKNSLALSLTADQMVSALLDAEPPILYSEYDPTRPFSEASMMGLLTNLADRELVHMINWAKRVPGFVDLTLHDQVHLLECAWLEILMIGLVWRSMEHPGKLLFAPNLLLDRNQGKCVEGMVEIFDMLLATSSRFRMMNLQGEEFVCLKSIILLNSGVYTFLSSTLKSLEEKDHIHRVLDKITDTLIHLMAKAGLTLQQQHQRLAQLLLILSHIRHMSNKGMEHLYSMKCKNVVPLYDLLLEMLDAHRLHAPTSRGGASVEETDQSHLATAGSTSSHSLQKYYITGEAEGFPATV

[17] = molecular target: Eukaryotic translation initiation factor 4H (Homo sapiens, UniProt Q15056); experiment: eIF4H binding inhibition – biochemical, uHTS, fluorescence polarization, translation initiation inhibitor project, primary screen (AID 2012)
[18] = molecular target: Polyadenylate-binding protein 1 (Homo sapiens, UniProt P11940); experiment: blockers of PABP interaction with poly(A) – biochemical, fluorescence polarization, […] (AID 2014)
[19] = molecular target: DNA dC->dU-editing enzyme APOBEC-3A (Homo sapiens, UniProt P31941); experiment: Dose Response confirmation of small molecule APOBEC3A DNA Deaminase Inhibitors via a fluorescence-based single-stranded DNA deaminase assay. [Related pubchem assays (depositor defined):AID493011, AID493024]; format: functional
[20] = molecular target: DNA dC->dU-editing enzyme APOBEC-3G (Homo sapiens, UniProt Q9HC16); format: functional;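 also: Dose-response counterscreen measuring inhibition of APOBEC3G DNA deaminase activity, run while confirming APOBEC3A inhibitors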
[21] = molecular target: T3, Eukaryotic translation initiation factor 2-alpha kinase 3 (Homo sapiens, UniProt Q9NZJ5); experiment: Dose response cell-based high-throughput screening assay to measure PERK inhibition. [Related pubchem assays: 1416 ]; format: functional
[22] = molecular target: T3, Eukaryotic translation initiation factor 2-alpha kinase 3; experiment: Counterscreen assay for PERK inhibitors: Dose response cell-based high throughput screening assay to measure inhibition of PERK at 6 hours. [Related pubchem assays: 1522, 1416 ]; format: functional
Estrogen receptor [23] = molecular target: T2, Estrogen receptor; experiment: ERα coactivator recruitment enhancers – biochemical, TR-FRET, ERα LBD, dose response (AID 737)
Melanocortin receptor 4 = Melanocortin receptor 4 (Homo sapiens, UniProt P32245); format: functional, cell-based;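 also: Cell-based assay with luminescence read-out, confirmatory dose-response testing for agonist activity of biased ligands at MC4R; human U2OS cells with tagged receptor and beta-arrestin; potency of agonists that increase receptor coupling to beta-arrestin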
[24] = toxicity toward HepG2 liver cells – cell-based, plate reader, cherry-pick, antagonist series, cytotoxicity control, dose response (AID 743416); format: functional
[25] = antiviral protection against BTV-induced cell death – arbovirus, BSR cells, confirmation (AID 1250); format: functional;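 also: protection from viral cytopathic effect measured as cell viability by ATP luminescence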
[26] = viability loss in HEK293 cells – cell-based, plate reader, cherry-picked samples, cytotoxicity control, dose response (AID 743446); format: functional
HeLa = experiment: Cytotoxicity counterscreen assay for transcriptional activators of heat shock protein 70 (Hsp70). [Related pubchem assays: 1203, 1252 ]; format: functional; conditions: Homo sapiens
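For CC50 in this document: cells exposed to compound for 16 hours before readout.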

T3 sequence (Q9NZJ5 whole entry): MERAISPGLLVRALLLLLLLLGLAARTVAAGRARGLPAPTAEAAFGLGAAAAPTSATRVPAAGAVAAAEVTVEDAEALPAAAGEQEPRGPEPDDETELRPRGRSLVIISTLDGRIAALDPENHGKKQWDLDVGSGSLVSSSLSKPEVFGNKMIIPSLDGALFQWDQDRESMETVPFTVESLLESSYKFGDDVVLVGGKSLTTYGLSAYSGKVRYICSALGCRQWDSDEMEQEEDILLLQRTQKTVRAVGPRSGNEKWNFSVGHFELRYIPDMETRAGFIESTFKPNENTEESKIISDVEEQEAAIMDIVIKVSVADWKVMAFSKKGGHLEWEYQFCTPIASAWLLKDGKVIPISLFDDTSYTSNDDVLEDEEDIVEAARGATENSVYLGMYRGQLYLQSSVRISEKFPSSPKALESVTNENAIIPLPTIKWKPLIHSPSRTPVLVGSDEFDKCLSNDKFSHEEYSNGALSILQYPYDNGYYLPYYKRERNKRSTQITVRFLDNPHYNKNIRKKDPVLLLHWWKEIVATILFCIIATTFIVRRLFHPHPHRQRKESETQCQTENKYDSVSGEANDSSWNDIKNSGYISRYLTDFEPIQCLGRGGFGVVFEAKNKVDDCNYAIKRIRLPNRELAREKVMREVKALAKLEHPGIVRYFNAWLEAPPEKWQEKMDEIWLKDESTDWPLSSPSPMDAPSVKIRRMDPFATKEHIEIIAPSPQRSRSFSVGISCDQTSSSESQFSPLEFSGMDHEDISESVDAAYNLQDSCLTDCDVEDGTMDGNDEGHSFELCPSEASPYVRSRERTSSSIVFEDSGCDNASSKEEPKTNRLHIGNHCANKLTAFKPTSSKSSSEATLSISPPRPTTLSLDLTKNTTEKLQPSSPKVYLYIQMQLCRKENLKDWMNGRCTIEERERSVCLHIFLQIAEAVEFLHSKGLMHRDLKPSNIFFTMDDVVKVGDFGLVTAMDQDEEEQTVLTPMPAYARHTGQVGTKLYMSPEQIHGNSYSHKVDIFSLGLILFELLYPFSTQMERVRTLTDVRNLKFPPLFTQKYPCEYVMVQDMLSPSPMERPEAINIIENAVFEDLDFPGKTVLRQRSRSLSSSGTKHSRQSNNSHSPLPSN
Paired box protein Pax-8, sequence (Q06710 whole entry, the tested form may be a part): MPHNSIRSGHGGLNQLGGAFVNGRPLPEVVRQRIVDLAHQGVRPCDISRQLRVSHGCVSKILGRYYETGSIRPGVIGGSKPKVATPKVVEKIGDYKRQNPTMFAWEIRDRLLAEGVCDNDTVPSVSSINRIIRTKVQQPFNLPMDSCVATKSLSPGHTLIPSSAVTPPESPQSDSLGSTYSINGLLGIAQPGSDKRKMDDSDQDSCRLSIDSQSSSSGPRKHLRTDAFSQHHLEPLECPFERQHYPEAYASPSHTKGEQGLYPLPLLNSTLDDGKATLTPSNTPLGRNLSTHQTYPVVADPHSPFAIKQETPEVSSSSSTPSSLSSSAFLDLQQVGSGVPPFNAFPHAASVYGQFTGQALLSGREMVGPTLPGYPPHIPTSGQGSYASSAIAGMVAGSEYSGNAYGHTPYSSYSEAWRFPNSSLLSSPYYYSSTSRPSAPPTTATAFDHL
DNA dC->dU-editing enzyme APOBEC-3A, sequence (P31941 whole entry): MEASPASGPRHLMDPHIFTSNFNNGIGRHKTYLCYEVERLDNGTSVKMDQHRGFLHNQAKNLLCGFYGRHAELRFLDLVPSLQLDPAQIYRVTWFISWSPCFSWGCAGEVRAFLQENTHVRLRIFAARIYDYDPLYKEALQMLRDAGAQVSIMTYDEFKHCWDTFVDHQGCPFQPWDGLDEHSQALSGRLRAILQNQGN
DNA dC->dU-editing enzyme APOBEC-3G, sequence (Q9HC16 whole entry): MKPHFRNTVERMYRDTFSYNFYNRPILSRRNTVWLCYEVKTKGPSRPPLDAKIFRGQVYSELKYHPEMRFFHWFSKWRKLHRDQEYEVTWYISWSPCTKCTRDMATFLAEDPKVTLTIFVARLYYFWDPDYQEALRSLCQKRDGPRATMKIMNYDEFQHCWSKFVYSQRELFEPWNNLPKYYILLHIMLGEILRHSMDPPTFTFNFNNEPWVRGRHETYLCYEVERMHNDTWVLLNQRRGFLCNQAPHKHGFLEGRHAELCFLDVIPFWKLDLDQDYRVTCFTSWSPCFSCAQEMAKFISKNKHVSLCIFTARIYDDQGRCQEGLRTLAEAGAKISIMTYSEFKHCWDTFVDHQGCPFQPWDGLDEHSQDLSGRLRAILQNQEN
Melanocortin receptor 4, sequence (P32245 whole entry): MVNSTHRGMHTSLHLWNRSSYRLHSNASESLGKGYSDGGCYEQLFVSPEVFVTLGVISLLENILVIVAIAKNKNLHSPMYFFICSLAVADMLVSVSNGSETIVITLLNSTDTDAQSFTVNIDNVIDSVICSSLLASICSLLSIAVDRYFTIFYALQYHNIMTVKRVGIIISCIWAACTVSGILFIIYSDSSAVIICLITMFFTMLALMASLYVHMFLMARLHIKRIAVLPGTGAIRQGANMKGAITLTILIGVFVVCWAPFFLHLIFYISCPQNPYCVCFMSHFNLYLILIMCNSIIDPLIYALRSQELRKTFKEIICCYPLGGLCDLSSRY
Polyadenylate-binding protein 1, sequence (P11940 whole entry): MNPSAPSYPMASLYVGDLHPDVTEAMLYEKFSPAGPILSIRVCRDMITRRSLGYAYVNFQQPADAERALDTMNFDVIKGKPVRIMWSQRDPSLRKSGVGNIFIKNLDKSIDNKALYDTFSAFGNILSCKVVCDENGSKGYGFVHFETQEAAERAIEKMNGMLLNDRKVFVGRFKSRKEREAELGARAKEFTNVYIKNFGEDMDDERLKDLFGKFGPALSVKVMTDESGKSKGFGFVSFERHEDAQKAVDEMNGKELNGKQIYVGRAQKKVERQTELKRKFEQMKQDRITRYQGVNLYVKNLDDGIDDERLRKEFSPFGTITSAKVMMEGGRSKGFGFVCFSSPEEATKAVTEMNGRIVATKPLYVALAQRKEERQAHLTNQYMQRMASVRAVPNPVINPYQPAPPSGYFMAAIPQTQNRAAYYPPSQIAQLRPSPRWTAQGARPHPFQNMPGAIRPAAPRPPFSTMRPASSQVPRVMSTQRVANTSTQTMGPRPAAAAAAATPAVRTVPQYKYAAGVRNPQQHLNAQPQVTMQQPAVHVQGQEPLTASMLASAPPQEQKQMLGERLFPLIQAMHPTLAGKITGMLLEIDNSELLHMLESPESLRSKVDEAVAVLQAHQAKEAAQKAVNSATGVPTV

With `Cc1ccccc1OCC(=O)Nc1cccc(C(=O)O)c1` the IC50 [1] was > 39.8 µM (not active), the AC50 [2] was 3.61 µM (active) and the AC50 [3] was 0.669 µM (active). For the same molecule, the AC50 [4] was 0.951 µM (active), the EC50 [5] was 0.393 µM (active) and the EC50 [6] was 0.541 µM (active). The AC50 [7] was 1.27 µM (active), the EC50 (cells) was 0.725 µM (active) and the AC50 [8] was 1.05 µM (active). For the same molecule, the AC50 [9] was 1.05 µM (active), the AC50 [10] was > 100 µM (inactive) and the EC50 [11] was < 0.1 µM (active). The AC50 (Paired box protein Pax-8) was 2.3 µM (active), the AC50 [12] was 0.342 µM (active) and the AC50 [13] was 7.82 µM (active). The AC50 [14] was 3.76 µM (active) and the AC50 [15] was > 100 µM (inactive).
With `O=C(CCCn1c(=S)[nH]c2ccccc2c1=O)N1CCN(Cc2cccc3ccccc23)CC1` the IC50 (Estrogen receptor [16]) was 0.17 µM (not active).
For `CC(=O)OC(C[N+]1(C)CCCCCC1)c1ccccc1` (configuration not stated), the IC50 [17] was > 100 µM (inactive), the IC50 [18] was 9.62 µM (active) and the IC50 [19] was 2.79 µM (active). For the same molecule, the IC50 [20] was 2.4 µM (active).
For `Oc1cnnc(N/N=C/c2cccs2)n1`, the EC50 [21] was > 55.7 µM (not active) and the EC50 [22] was > 55.7 µM (not active).
In the case of `COc1cc(C(=O)Nc2nnc(-c3sccc3C)s2)cc(OC)c1OC`, the EC50 (Estrogen receptor [23]) is reported as 13.2 µM (active) and the EC50 (Melanocortin receptor 4) is reported as > 89.2 µM (inactive).
In the case of `COc1ccc(-c2csc(NC(=O)c3ccc(OCC(=O)N4CCOCC4)c(OC)c3)n2)cc1`, the AC50 [3] is reported as 18.4 µM (active), the AC50 [24] is reported as > 52 µM (inactive) and the AC50 [9] is reported as 22.4 µM (active). For the same molecule, the IC50 [25] was 27.5 µM (active) and the AC50 [26] was 43.1 µM (active).
With `Cc1nn(C)c(C)c1NC(=O)c1ccc(S(=O)(=O)N(C)C)cc1` the CC50 (HeLa) was > 99 µM (not active).
